Assay results from patent US20180214395A1 (priority 2017, published 2018).
“And” between values parts separate entries of the source, which are not always exact repeats. Equal entries are not always repeated. Structures can show the parent of a compound that is named as a salt.

Tests used:
[1] = target: T1, serotonin transporter (SERT or 5-HT) (Rattus norvegicus, UniProt P31652); test: biochemical
[2] = target: T2, PCP (antagonist radioligand) (Rattus norvegicus, UniProt P35439); test: Binding assay PCP (antagonist radioligand); conditions: Study 2; Hill coefficient
T2 construct: PCP; rat cerebral; [^3H]TCP; tissue Eurofins Cerep; host or cells: rat cerebral cortex

[3] = target: T3, norepinephrine transporter (NET) (Rattus norvegicus, UniProt Q63380); test: Norepinephrine uptake assay; assay type: biochemical; conditions: for norepinephrine uptake, % inhibition: 1.0E−05 M
T3 construct: tissue Eurofins Cerep; host or cells: rat hypothalamus synaptosomes (own knowledge of the vendor's assay)

[4] = target: T1, serotonin transporter (SERT or 5-HT)
[5] = Novelty-suppressed feeding test (NSFT); assay type: in vivo; conditions: rat, 72 hr after single dose
[6] = target: NMDA (antagonist radioligand); test: Binding assay NMDA (antagonist radioligand); conditions: Study 1; reference compound
μ (MOP) (h) = μ (MOP) (h) (Homo sapiens, UniProt P35372)
opioid receptors = conditions: cited from earlier work
[7] = mouse hot plate test; cited from earlier work
[8] = Female urine sniffing test (FUST); assay type: in vivo; conditions: rat; 24 hr after single dose; ketamine 10 mg/kg ip, d-methadone 20 mg/kg sc
[9] = Locomotor activity assessment (distance traveled, rearing); assay type: in vivo, rat
Forced swim test = assay type: in vivo, rat
[10] = 10 mg/kg, 24 hours prior to testing
[11] = rat, 24 h after dosing, one-way ANOVA
[12] = 10 mg/kg, single administration 24 hours prior, 60 counts per subject
[13] = Vehicle minus treatment, 10 mg/kg

μ (MOP) (h), sequence (P35372 whole entry): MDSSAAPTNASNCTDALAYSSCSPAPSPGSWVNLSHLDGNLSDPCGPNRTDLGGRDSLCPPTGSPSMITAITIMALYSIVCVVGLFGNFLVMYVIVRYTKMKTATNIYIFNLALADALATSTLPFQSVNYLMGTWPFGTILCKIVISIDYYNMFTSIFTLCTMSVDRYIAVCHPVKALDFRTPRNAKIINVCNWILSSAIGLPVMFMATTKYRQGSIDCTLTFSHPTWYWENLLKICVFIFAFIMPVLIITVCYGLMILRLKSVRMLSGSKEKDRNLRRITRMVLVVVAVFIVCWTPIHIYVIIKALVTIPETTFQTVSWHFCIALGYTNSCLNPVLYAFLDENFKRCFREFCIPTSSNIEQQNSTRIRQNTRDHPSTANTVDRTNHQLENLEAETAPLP
T1 sequence (P31652 whole entry): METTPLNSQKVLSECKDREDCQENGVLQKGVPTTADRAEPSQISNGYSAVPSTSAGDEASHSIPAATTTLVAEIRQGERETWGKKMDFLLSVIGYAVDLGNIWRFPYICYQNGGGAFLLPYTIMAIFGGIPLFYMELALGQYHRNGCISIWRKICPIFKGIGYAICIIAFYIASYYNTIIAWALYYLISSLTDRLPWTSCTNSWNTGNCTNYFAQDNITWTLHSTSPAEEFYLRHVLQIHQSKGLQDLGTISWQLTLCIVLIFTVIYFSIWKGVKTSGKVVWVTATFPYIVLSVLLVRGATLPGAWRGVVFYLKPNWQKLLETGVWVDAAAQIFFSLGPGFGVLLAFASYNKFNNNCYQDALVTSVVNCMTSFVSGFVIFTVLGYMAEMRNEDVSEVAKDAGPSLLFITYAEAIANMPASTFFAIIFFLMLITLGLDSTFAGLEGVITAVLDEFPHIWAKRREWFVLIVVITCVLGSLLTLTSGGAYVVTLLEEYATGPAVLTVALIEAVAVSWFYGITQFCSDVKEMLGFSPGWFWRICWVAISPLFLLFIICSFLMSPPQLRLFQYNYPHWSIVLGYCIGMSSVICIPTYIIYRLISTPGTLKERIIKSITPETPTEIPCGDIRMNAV
T3 sequence (Q63380 1-617): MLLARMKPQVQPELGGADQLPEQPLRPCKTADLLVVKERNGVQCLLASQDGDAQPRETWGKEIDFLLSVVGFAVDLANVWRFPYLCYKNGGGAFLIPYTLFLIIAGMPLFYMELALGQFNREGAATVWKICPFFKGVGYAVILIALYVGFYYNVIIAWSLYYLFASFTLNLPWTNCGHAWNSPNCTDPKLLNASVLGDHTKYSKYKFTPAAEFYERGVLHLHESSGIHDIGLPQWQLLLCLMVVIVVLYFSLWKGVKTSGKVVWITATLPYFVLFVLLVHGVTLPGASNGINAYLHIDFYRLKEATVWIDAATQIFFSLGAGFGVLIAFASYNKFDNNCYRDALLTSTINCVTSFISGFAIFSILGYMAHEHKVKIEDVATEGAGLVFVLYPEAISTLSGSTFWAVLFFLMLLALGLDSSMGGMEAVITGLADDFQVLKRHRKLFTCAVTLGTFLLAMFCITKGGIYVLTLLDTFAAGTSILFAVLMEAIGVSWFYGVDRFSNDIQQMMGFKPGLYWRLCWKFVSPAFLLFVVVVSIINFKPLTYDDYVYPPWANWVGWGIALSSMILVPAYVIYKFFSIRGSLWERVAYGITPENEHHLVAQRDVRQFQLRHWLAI

In the case of `[2H]C([2H])([2H])CC(=O)C(C[C@H](C)N(C([2H])([2H])[2H])C([2H])([2H])[2H])(c1ccccc1)c1ccccc1`, the IC50 [1] is reported as 1100 nM, the nH [2] is reported as 0.8 and the IC50 [3] is reported as 7200 nM. For the same compound, the “norepinephrine uptake, % inhibition” value [3] was 61.4% and the inhibition [4] was 90.5%.

In the case of `CCC(=O)C(CC(C)N(C)C)(c1ccccc1)c1ccccc1` (racemic) [methadone], the “NSFT: latency to feed in the home cage” value [5] is reported as “neither ketamine or methadone influenced”.

For `O=C(O)[C@@H]1C[C@H](CP(=O)(O)O)CCN1` [CGS 19755], the IC50 [6] was 1300 nM and the Ki [6] was 1100 nM.

In the case of `C[C@@H](NC(=O)[C@@H](N)Cc1ccc(O)cc1)C(=O)NCC(=O)N(C)[C@@H](Cc1ccccc1)C(=O)NCCO` [DAMGO], the nH (μ (MOP) (h)) is reported as 0.9 and 0.8 and 0.7 and 1.0 and 0.6.

With `C[C@]12N[C@H](Cc3ccccc31)c1ccccc12` [MK 801] the nH [2] was 0.9 and 1.1.

In the case of `CC[C@@H](c1cccc(O)c1)[C@@H](C)CN(C)C` [TapentadolHydrochloride], the inhibition [4] is reported as 91.1% and 87.2% and 89.1%.

For `CCC(=O)C(c1ccccc1)(c1ccccc1)C(C)CN(C)C` (stereo not drawn) [d-isomethadone], the “Potency, times less potent than l-isomethadone” value (opioid receptors) is listed as 50 times.

For `C[C@H](CN1CCOCC1)C(C(=O)N1CCCC1)(c1ccccc1)c1ccccc1` [d-moramide], the “Potency, times more potent than l-moramide” value [7] is listed as 700 times.

With `CNC1(c2ccccc2Cl)CCCCC1=O` (centres unmarked) [ketamine, reference compound] the “FUST: time sniffing water” value [8] was “no effect”, the “FUST: time spent sniffing female urine vs vehicle” value [8] was “increases” and the “NSFT: latency to feed in the home cage” value [5] was “neither ketamine or methadone influenced”. The “NSFT: latency to eat in a novel open field” value ([5]; ketamine 10 mg/kg ip, d-methadone 20 mg/kg sc) was “significantly decreases”, the “Distance traveled min 1-5, Mean” value [9, 10] was 586.333 and the “Rearing min 1-5, Mean” value [9, 10] was 20.500. For the same compound, the “Total Distance Traveled, Mean” value [9, 10] was 2464.333 cm/60 min, the “Total Rearing, Mean” value ([9]; 10 mg/kg, 24 hours prior to testing, 60 minute test) was 85.000 and the “Locomotor activity: total distance traveled (60 min)” value [9, 11] was “no significant effect”. For the same compound, the “Locomotor activity: total rearing frequency (60 min)” value [9, 11] was “no significant effect”, the “Climbing, Mean frequency” value (Forced swim test; [12]) was 7.600 and the “Immobility, Mean frequency” value (Forced swim test; [12]) was 34.100. For the same compound, the “Swimming, Mean frequency” value (Forced swim test; [12]) was 18.300, the “Climbing, Mean Diff. (Fisher's PLSD)” value (Forced swim test; [13]) was −3.822 and the “Immobility, Mean Diff. (Fisher's PLSD)” value (Forced swim test; [13]) was 14.900. For the same compound, the “Swimming, Mean Diff. (Fisher's PLSD)” value (Forced swim test; [13]) was −11.078, the “Forced swim test: frequency of immobility vs vehicle” value (Forced swim test; rat, 24 h after single dose, d-methadone 10, 20 and 40 mg/kg SC, ketamine 10 mg/kg IP) was “significantly decreased” and the “Forced swim test: frequency of swimming vs vehicle” value (Forced swim test; rat, d-methadone 10, 20 and 40 mg/kg SC, ketamine 10 mg/kg IP) was “significantly increased”.

In the case of `CC[C@@H](c1cccc(O)c1)[C@@H](C)CN(C)C` [tapentadol hydrochloride, reference compound], the IC50 [1] is reported as 850 nM, the IC50 [3] is reported as 260 nM and the “norepinephrine uptake, % inhibition” value [3] is reported as 94.1%. For the same compound, the inhibition [4] was 89.1%.
